The target in assay [1] is T1, ΔF508-CFTR (Homo sapiens, UniProt P13569, DEL508-508).
T1 construct: host or cells: CFBE41o-, doxycycline-inducible
Description: CFTR cell surface levels using HRP-tagged ΔF508-CFTR expressing CFBE cells, in the presence of a co-corrector. The assay is classed as cell-based. The conditions noted are these: HRP-tagged ΔF508-CFTR expressing CFBE cells, in the presence of 3 μM co-corrector; for EC50: read-out: EC50. A digest of the protocol: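 Cells were seeded with 0.5 μg/mL doxycycline and held 68 h at 37 °C. Test compounds plus 3 μM co-corrector (final 0.1% DMSO) were then added for 20 h at 33 °C. Washed cells received HRP substrate, and luminescence was normalized between DMSO and 3 μM co-corrector controls.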

For assay [2], the target named is T1, ΔF508-CFTR. Description: CFTR cell surface levels using HRP-tagged ΔF508-CFTR expressing CFBE cells, intrinsic corrector capacity. Type of assay: cell-based. The following applies: for EC50: read-out: EC50. A digest of the protocol:
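Here the cells express ΔF508-CFTR with horseradish peroxidase inserted in extracellular loop 4, so only rescued channel at the surface gives luminescent signal. Compounds act on their own, 20 h at the reduced temperature of 33 °C; values are percent activity relative to DMSO and a 3 μM corrector.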

Where [3] appears, read: HRP-tagged ΔF508-CFTR CFBE41o- cells, compounds alone (intrinsic corrector capacity), 20 hours at 33° C., positive control 3 μM corrector.
Where [4] appears, read: HRP-tagged ΔF508-CFTR CFBE41o- cells, compounds alone (intrinsic corrector capacity), 20 hours at 33° C.
The mark [5] stands for this setting: HRP-tagged ΔF508-CFTR expressing CFBE cells, intrinsic corrector capacity (no co-corrector), 33° C., 20 hours.
[6] abbreviates: HRP-tagged ΔF508-CFTR CFBE cells, compound alone (intrinsic corrector capacity), 20 hours at 33° C.

T1 sequence (P13569 with tags, fused parts or gaps DEL508-508): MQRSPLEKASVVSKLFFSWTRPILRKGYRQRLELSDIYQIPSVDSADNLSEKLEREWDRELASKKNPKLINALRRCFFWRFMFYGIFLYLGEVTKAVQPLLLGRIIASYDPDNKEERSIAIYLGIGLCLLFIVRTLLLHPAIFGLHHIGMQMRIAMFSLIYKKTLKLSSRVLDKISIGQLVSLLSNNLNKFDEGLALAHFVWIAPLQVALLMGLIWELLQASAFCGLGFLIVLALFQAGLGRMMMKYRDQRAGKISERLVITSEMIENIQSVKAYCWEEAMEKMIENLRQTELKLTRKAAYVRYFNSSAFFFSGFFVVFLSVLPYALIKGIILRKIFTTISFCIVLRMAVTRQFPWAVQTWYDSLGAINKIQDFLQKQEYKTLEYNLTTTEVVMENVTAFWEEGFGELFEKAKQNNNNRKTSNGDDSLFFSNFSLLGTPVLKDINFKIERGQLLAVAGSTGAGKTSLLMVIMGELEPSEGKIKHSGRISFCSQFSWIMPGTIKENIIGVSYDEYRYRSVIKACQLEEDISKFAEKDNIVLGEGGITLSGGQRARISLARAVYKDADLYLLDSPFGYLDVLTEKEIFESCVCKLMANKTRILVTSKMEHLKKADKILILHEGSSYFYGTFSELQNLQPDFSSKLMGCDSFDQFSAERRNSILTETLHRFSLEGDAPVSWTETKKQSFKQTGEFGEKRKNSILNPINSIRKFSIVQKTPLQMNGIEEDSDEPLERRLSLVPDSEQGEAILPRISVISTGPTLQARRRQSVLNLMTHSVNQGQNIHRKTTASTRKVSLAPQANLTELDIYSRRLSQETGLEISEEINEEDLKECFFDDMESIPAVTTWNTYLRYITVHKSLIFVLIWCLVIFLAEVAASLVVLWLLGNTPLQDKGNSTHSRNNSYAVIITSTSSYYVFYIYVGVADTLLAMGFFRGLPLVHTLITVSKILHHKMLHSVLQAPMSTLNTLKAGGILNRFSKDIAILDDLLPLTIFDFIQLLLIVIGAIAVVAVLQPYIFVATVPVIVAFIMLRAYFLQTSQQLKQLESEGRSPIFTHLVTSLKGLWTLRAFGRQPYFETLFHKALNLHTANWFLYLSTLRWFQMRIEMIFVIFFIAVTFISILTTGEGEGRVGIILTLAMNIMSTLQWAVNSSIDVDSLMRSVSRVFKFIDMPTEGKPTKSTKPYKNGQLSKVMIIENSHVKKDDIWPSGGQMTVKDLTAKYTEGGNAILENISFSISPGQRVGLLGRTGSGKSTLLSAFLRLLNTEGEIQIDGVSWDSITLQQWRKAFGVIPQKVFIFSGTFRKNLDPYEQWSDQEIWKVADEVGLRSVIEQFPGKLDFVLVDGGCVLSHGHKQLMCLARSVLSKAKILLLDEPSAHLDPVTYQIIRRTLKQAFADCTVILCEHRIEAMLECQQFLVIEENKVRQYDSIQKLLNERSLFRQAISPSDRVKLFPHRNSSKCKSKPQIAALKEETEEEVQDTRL

For the molecule `Cc1nn(-c2ccccc2)c2nc(C(=O)O)cc(-c3ccc(N4CC(F)(F)C4)cc3)c12` [compound 97, 4-[4-(3,3-difluoroazetidin-1-yl)phenyl]-3-methyl-1-phenyl-1H-pyrazolo[3,4-b]pyridine-6-carboxylic acid], the “% Activation” value was 268% at ΔF508-CFTR [1] and 96.51% at ΔF508-CFTR [2] (setting [3]). The values for the EC50 at ΔF508-CFTR [1] and on ΔF508-CFTR [2] (setting [4]) were 1160 nM and 1530 nM, respectively.

For `CC(C)N1CCN(C2CCN(c3cc(C(=O)O)nc4c3c(C3CCC3)nn4-c3ccc(F)cc3)CC2)CC1` [compound 879, 3-cyclobutyl-1-(4-fluorophenyl)-4-{4-[4-(propan-2-yl)piperazin-1-yl]piperidin-1-yl}-1H-pyrazolo[3,4-b]pyridine-6-carboxylic acid], at ΔF508-CFTR [1], the “% Activation” value stood at 446.25% and the 50% effective concentration (EC50) (commonly the concentration giving half of the maximal effect) amounted to 196 nM. In addition, on ΔF508-CFTR [2] (setting [5]), the “% Activation” value is 279.6% and the EC50 came out at 355 nM.

For `CCOC(=O)N1CCN(C2CCN(c3cc(C(=O)O)nc4c3c(C3CCC3)nn4-c3ccc(F)cc3)CC2)CC1` [compound 891, 3-cyclobutyl-4-{4-[4-(ethoxycarbonyl)piperazin-1-yl]piperidin-1-yl}-1-(4-fluorophenyl)-1H-pyrazolo[3,4-b]pyridine-6-carboxylic acid], the “% Activation” value at ΔF508-CFTR [1] was 564.5%; at ΔF508-CFTR [2] (setting [5]) it was 367.25%. In addition, the EC50 came out at 51 nM at ΔF508-CFTR [1] and 93.1 nM at ΔF508-CFTR [2] (setting [5]).

For the molecule `N#CC1CCN(c2ccc(-c3cc(C(=O)O)nc4c3c(C3CCC3)nn4-c3cccc(N4CCCC4)c3)cn2)CC1` [compound 248], the “% Activation” value on ΔF508-CFTR [1] turned out to be 606.83%; on ΔF508-CFTR [2] (setting [3]), 405.93%. In addition, the results for the EC50 on ΔF508-CFTR [1] and on ΔF508-CFTR [2] (setting [4]) were 422 nM and 550 nM, respectively.

Regarding `O=C(O)c1cc(N2CCC(N3CCOCC3)CC2)c2c(C3CCC3)nn(-c3ccc(OCCF)nc3)c2n1` [compound 917], on ΔF508-CFTR [1], the “% Activation” value is 306.95% and the EC50 was 1670 nM. Also, on ΔF508-CFTR [2] (setting [6]), the “% Activation” value is on record as 116.67% and the EC50 was found to be 1660 nM.

For `O=C(O)c1cc(N2CCC(F)(F)CC2)c2c(C3CCC3)nn(-c3ccccc3)c2n1` [compound 594, 3-cyclobutyl-4-(4,4-difluoropiperidin-1-yl)-1-phenyl-1H-pyrazolo[3,4-b]pyridine-6-carboxylic acid], on ΔF508-CFTR [1], the “% Activation” value is reported as 269.8% and the EC50 was 621 nM. Moreover, on ΔF508-CFTR [2] (setting [5]), the “% Activation” value stood at 75.66% and the EC50 turned out to be 787 nM.

Turning to `Cc1nn(-c2ccccc2)c2nc(C(=O)O)cc(OCCN3CCS(=O)(=O)CC3)c12` [compound 334, 4-[2-(1,1-dioxo-lλ^6,4-thiazinan-4-yl)ethoxy]-3-methyl-1-phenyl-1H-pyrazolo[3,4-b]pyridine-6-carboxylic acid], the “% Activation” value at ΔF508-CFTR [1] amounted to 226.6%; at ΔF508-CFTR [2] (setting [3]) it was 36.645%. Also, the values for the EC50 at ΔF508-CFTR [1] and on ΔF508-CFTR [2] (setting [4]) were 1900 nM and 4170 nM, respectively.

Take `CC(C)c1nn(-c2cc(Cl)ccn2)c2nc(C(=O)O)cc(-c3ccc(N4CCOCC4)cc3)c12` [compound 229, 1-(4-chloropyridin-2-yl)-4-[4-(morpholin-4-yl)phenyl]-3-(propan-2-yl)-1H-pyrazolo[3,4-b]pyridine-6-carboxylic acid]: the “% Activation” value is 298% on ΔF508-CFTR [1] and 130.65% at ΔF508-CFTR [2] (setting [3]). For the same molecule, the EC50 on ΔF508-CFTR [1] turned out to be 1560 nM; on ΔF508-CFTR [2] (setting [4]) it was 2150 nM.

On to `Cc1cccc(-n2nc(C(C)C)c3c(N4CCC5C(CCN5C(=O)OC(C)(C)C)C4)cc(C(=O)O)nc32)c1` (centres unmarked) [compound 234, 4-[1-(tert-butoxycarbonyl)octahydro-5H-pyrrolo[3,2-c]pyridin-5-yl]-1-(3-methylphenyl)-3-(propan-2-yl)-1H-pyrazolo[3,4-b]pyridine-6-carboxylic acid], for which the “% Activation” value at ΔF508-CFTR [1] came out at 510.27%; on ΔF508-CFTR [2] (setting [3]), 292.97%. Also, the concentration giving a half-maximal response (EC50) at ΔF508-CFTR [1] was 368 nM; at ΔF508-CFTR [2] (setting [4]), 464 nM.

For `COCCN(C)c1ccc(-c2cc(C(=O)O)nc3c2c(C(C)C)nn3-c2cccc(N3CCCC3)c2)cc1` [compound 238, 4-{4-[(2-methoxyethyl)(methyl)amino]phenyl}-3-(propan-2-yl)-1-[3-(pyrrolidin-1-yl)phenyl]-1H-pyrazolo[3,4-b]pyridine-6-carboxylic acid], the “% Activation” value came out at 613.4% at ΔF508-CFTR [1] and 393.7% at ΔF508-CFTR [2] (setting [3]). Besides, the concentration giving a half-maximal response (EC50) was 540 nM at ΔF508-CFTR [1] and 827 nM at ΔF508-CFTR [2] (setting [4]).

Regarding `CCN(CC)C(=O)C1CCCN(c2cc(C(=O)O)nc3c2c(C2CCC2)nn3-c2ccccc2)C1` (centres unmarked) [compound 500, 3-cyclobutyl-4-[3-(diethylcarbamoyl)piperidin-1-yl]-1-phenyl-1H-pyrazolo[3,4-b]pyridine-6-carboxylic acid], the figures for the “% Activation” value at ΔF508-CFTR [1] and at ΔF508-CFTR [2] (setting [5]) were 289% and 132.8%, respectively. Also, the values for the 50% effective concentration (EC50) on ΔF508-CFTR [1] and at ΔF508-CFTR [2] (setting [5]) were 296 nM and 467 nM, respectively.

As to `CC(=O)N1CCN(c2cc(C(=O)O)nc3c2c(C)nn3-c2ccccc2)CC1` [compound 132, 4-(4-acetylpiperazin-1-yl)-3-methyl-1-phenyl-1H-pyrazolo[3,4-b]pyridine-6-carboxylic acid], the “% Activation” value at ΔF508-CFTR [1] turned out to be 156.4%; on ΔF508-CFTR [2] (setting [3]), 13.45%. For the same molecule, the values for the EC50 at ΔF508-CFTR [1] and at ΔF508-CFTR [2] (setting [4]) were 3340 nM and above 10000 nM, respectively.

Take `CCN(CC)CCCOc1cc(C(=O)O)nc2c1c(C1CCC1)nn2-c1ccccc1` [compound 624, 3-cyclobutyl-4-[3-(diethylamino)propoxy]-1-phenyl-1H-pyrazolo[3,4-b]pyridine-6-carboxylic acid]: on ΔF508-CFTR [1], the “% Activation” value was determined as 281.85% and the concentration for a half-maximal effect (EC50) was found to be 2210 nM. For the same molecule, on ΔF508-CFTR [2] (setting [5]), the “% Activation” value was 98.14% and the EC50 worked out at 3330 nM.

As to `O=C(O)c1cc(N2CCC(N3CCOCC3)CC2)c2c(C3CCC3)nn(-c3ccnc(OC(F)F)c3)c2n1` [compound 889, 3-cyclobutyl-1-[2-(difluoromethoxy)pyridin-4-yl]-4-[4-(morpholin-4-yl)piperidin-1-yl]-1H-pyrazolo[3,4-b]pyridine-6-carboxylic acid], on ΔF508-CFTR [1], the “% Activation” value came out at 449.8% and the EC50 was 241 nM. On ΔF508-CFTR [2] (setting [5]), the “% Activation” value was 229.2% and the 50% effective concentration (EC50) is 404 nM.

Consider `CC(C)Oc1nn(-c2ccccc2)c2nc(C(=O)O)cc(-c3ccc(N4CCOCC4)cc3)c12` [compound 390, 4-[4-(morpholin-4-yl)phenyl]-1-phenyl-3-[(propan-2-yl)oxy]-1H-pyrazolo[3,4-b]pyridine-6-carboxylic acid], for which the “% Activation” value stood at 362% at ΔF508-CFTR [1] and 177.8% at ΔF508-CFTR [2] (setting [3]). The half-maximal effective concentration (EC50) was 272 nM on ΔF508-CFTR [1] and 585 nM at ΔF508-CFTR [2] (setting [4]).

In the case of `O=C(O)c1cc(N2CCC(F)(F)C2)c2c(C3CCC3)nn(-c3ccccc3)c2n1` [compound 441, 3-cyclobutyl-4-(3,3-difluoropyrrolidin-1-yl)-1-phenyl-1H-pyrazolo[3,4-b]pyridine-6-carboxylic acid], at ΔF508-CFTR [1], the “% Activation” value came out at 289.75% and the EC50 worked out at 1510 nM. At ΔF508-CFTR [2] (setting [5]), the “% Activation” value came out at 111.85% and the EC50 stood at 2050 nM.

Turning to `COCC1CCN(c2cc(C(=O)O)nc3c2c(C)nn3-c2ccccc2)CC1` [compound 291, 4-[4-(methoxymethyl)piperidin-1-yl]-3-methyl-1-phenyl-1H-pyrazolo[3,4-b]pyridine-6-carboxylic acid], the entries for the “% Activation” value on ΔF508-CFTR [1] and at ΔF508-CFTR [2] (setting [3]) were 349.55% and 168.85%, respectively. For the same molecule, the EC50 was 1400 nM at ΔF508-CFTR [1] and 1710 nM at ΔF508-CFTR [2] (setting [4]).

With `Cc1cccc(-n2nc(C(C)C)c3c(N4CCC5(CC4)CN(C)C(=O)O5)cc(C(=O)O)nc32)c1` [compound 359, 4-(3-methyl-2-oxo-1-oxa-3,8-diazaspiro[4.5]decan-8-yl)-1-(3-methylphenyl)-3-(propan-2-yl)-1H-pyrazolo[3,4-b]pyridine-6-carboxylic acid], the figures for the “% Activation” value on ΔF508-CFTR [1] and at ΔF508-CFTR [2] (setting [3]) were 349.55% and 142%, respectively. In addition, the 50% effective concentration (EC50) on ΔF508-CFTR [1] came out at 2180 nM; at ΔF508-CFTR [2] (setting [4]), 2040 nM.

`O=C(O)c1cc(N2CCC(CN3CC(F)C3)CC2)c2c(C3CCC3)nn(-c3ccccc3)c2n1` [compound 827, 3-cyclobutyl-4-{4-[(3-fluoroazetidin-1-yl)methyl]piperidin-1-yl}-1-phenyl-1H-pyrazolo[3,4-b]pyridine-6-carboxylic acid]: on ΔF508-CFTR [1], the “% Activation” value is recorded as 453.25% and the EC50 was 93 nM. Further, at ΔF508-CFTR [2] (setting [5]), the “% Activation” value worked out at 265.4% and the EC50 was 257 nM.

Regarding `O=C(O)c1cc(N2CCC(CN3CCCOCC3)CC2)c2c(C3CCC3)nn(-c3ccccc3)c2n1` [compound 834, 3-cyclobutyl-4-{4-[(1,4-oxazepan-4-yl)methyl]piperidin-1-yl}-1-phenyl-1H-pyrazolo[3,4-b]pyridine-6-carboxylic acid], on ΔF508-CFTR [1], the “% Activation” value was 403% and the EC50 was determined as 114 nM. Moreover, on ΔF508-CFTR [2] (setting [5]), the “% Activation” value was determined as 227.9% and the EC50 was 241 nM.

Source of the values: US9796711B2, “Substituted pyrazolo[3,4-b]pyridin-6-carboxylic acids and method of use” (AbbVie S.àr.l., priority 2015, dated 2017).
